Source: patent US11046716B2, “Beta-lactamase inhibitors” (priority 2015, dated 2021)

How the values were obtained:
KPC-2 = biological target: T1, KPC-2 (Klebsiella pneumoniae, UniProt Q9F663); test: β-lactamase enzyme inhibition assay, KPC-2 (imipenem substrate); type: biochemical; details: Class A; imipenem substrate, 300 nm; read-out: KPC-2
T1 construct: made in house; host or cells: E. coli BL21(DE3)
Outline: (§1)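 Compounds are mixed with purified, untagged recombinant β-lactamase and held 15 min at 37 °C. Substrate is then added: nitrocefin (100 μM final) for OXA-1, imipenem for KPC-2, cefotaxime for SHV-5. Absorbance is followed immediately, and percent inhibition per concentration gives the IC50.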

[1] = system: P. aeruginosa expressing the Class B carbapenemase VIM-2; test: Broth microdilution MIC assay with meropenem, P. aeruginosa VIM-2; type: cell-based; details: Fixed Mero (meropenem) 4 μg/mL; P. aerug. 2775 VIM-2
Outline: (§2)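 Strains grown 3-5 hours in CAMHB are inoculated by the CLSI broth microdilution method onto compound dilutions (16 to 0.125 μg/mL) overlaid with β-lactam at 4 μg/ml final. After 16-20 hours at 37° C, the lowest compound concentration inhibiting growth is taken as the MIC.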

[2] = system: E. cloacae expressing the Class C P99; test: Broth microdilution MIC assay with ceftazidime, E. cloacae P99; type: cell-based; details: Fixed CAZ (ceftazidime) 4 μg/mL; E. cl. 144200 p99 AmpC
Outline: as §2

SHV-5 = biological target: T2, SHV-5 (Klebsiella pneumoniae, UniProt P0A3M1); test: β-lactamase enzyme inhibition assay, SHV-5 (cefotaxime substrate); type: biochemical
T2 construct: made in house; host or cells: E. coli BL21(DE3)
T2 sequence (P0A3M1 22-286): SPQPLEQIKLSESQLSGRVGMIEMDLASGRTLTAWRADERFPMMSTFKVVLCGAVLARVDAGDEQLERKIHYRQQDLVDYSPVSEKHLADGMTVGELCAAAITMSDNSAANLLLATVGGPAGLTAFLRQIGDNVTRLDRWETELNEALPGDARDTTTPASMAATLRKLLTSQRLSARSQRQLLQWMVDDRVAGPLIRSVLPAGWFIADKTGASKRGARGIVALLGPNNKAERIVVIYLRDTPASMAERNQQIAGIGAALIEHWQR
Outline: as §1

OXA-48 = OXA-48 (UniProt Q6XEC0); test: β-lactamase enzyme inhibition assay, Class D oxacillinase; type: biochemical; details: read-out: OXA-48
AmpC = biological target: T3, AmpC (Enterobacter cloacae, UniProt P05364); test: β-lactamase enzyme inhibition assay, p99 AmpC (nitrocefin substrate); type: biochemical
T3 construct: made in house; host or cells: E. coli BL21(DE3)
T3 sequence (P05364 21-381): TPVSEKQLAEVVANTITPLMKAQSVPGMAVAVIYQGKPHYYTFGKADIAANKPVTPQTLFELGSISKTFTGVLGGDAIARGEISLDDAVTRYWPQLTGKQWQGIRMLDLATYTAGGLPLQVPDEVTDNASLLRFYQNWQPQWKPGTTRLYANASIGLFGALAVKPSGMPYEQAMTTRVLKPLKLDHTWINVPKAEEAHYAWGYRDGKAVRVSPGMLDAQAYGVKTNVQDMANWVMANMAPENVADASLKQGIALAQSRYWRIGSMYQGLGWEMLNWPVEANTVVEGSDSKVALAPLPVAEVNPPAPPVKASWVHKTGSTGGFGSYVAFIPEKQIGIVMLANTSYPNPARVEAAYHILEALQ
Outline: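 Compounds are mixed with purified, untagged recombinant β-lactamase and held 15 min at 37 °C. Substrate is then added. Absorbance is followed immediately, and percent inhibition per concentration gives the IC50.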

[3] = system: K. pneumoniae producing the Class D carbapenemase OXA-48; test: Broth microdilution MIC assay with meropenem, K. pneumoniae OXA-48; type: cell-based; details: Fixed Mero (meropenem) 4 μg/mL; K. p. 11978 OXA-48
Outline: as §2

[4] = system: K. pneumoniae expressing the class A carbapenemase KPC-2 and the class B carbapenemase VIM-4; test: Broth microdilution MIC assay with meropenem, K. pneumoniae KPC-2 and VIM-4; type: cell-based; details: Fixed Mero (meropenem) 4 μg/mL; K. p. A-1797 KPC-2 VIM-4
Outline: as §2

VIM-2 = biological target: T4, VIM-2 (Escherichia coli, UniProt Q5U7L7); test: β-lactamase enzyme inhibition assay, VIM-2 (nitrocefin substrate); type: biochemical; details: Class B; nitrocefin substrate, 486 nm; read-out: VIM-2
T4 construct: made in house; host or cells: E. coli BL21(DE3)
Outline: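 First, VIM-2 purified by repeated anion exchange at pH 7.5 is mixed with inhibitor and held 15 min at 37 °C. Next, nitrocefin (final 100 μM) is dispensed and absorbance at 486 nm monitored immediately for 10 min. Rates versus uninhibited controls give IC50.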

[5] = system: E. coli expressing the Class A Extended Spectrum Beta-Lactamase (ESBL) CTX-M-15; test: Broth microdilution MIC assay with ceftazidime, E. coli CTX-M-15; type: cell-based; details: Fixed CAZ (ceftazidime) 4 μg/mL; E. coli ESBL4 CTX-M-15
Outline: as §2

[6] = system: K. pneumoniae expressing the Class A carbapenemase KPC-2; test: Broth microdilution MIC assay with meropenem, K. pneumoniae KPC-2; type: cell-based; details: Fixed Mero (meropenem) 4 μg/mL; K. p. 156319 KPC-3
Outline: as §2

T1 sequence (Q9F663 25-293, looked up): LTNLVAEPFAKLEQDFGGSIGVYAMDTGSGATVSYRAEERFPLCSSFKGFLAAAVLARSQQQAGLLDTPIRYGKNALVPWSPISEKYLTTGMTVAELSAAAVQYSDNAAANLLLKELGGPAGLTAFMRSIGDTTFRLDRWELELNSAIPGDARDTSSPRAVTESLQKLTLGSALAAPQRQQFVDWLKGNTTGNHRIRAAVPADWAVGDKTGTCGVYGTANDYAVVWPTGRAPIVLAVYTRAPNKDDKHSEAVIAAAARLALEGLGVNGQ

Structure (SMILES)	IC50 (KPC-2) [nM]	MIC (μg/mL) of Exemplary Compounds in presence of fixed β-lactams: P. aerug. 2775 VIM-2 [1]	MIC (μg/mL) of Exemplary Compounds in presence of fixed β-lactams: E. cl. 144200 p99 AmpC [2]	IC50 (SHV-5) [nM]	IC50 (OXA-48) [nM]	IC50 (AmpC) [nM]	MIC (μg/mL) of Exemplary Compounds in presence of fixed β-lactams: K. p. 11978 OXA-48 [3]	MIC (μg/mL) of Exemplary Compounds in presence of fixed β-lactams: K. p. A-1797 KPC-2 VIM-4 [4]	IC50 (VIM-2) [nM]	MIC (μg/mL) of Exemplary Compounds in presence of fixed β-lactams: E. coli ESBL4 CTX-M-15 [5]	MIC (μg/mL) of Exemplary Compounds in presence of fixed β-lactams: K. p. 156319 KPC-3 [6]
NCCc1nnn(CC(=O)N[C@H]2Cc3cccc(C(=O)O)c3OB2O)n1 [Example 103, (R)-3-(2-(5-(2-aminoethyl)-2H-tetrazol-2-yl)acetamido)-2-hydroxy-3,4-dihydro-2H-benzo[e][1,2]oxaborinine-8-carboxylic acid]	< 100	C (C represents an MIC of <1 μg/mL)	C (C represents an MIC of <1 μg/mL)	100 to 1000	100 to 1000	< 100	B (B represents an MIC between 1 and 16 μg/mL inclusive)	B (B represents an MIC between 1 and 16 μg/mL inclusive)	100 to 1000	C (C represents an MIC of <1 μg/mL)	C (C represents an MIC of <1 μg/mL)
N=CNCCn1nnnc1CC(=O)N[C@H]1Cc2cccc(C(=O)O)c2OB1O [Example 104, (R)-3-(2-(1-(2-formimidamidoethyl)-1H-tetrazol-5-yl)acetamido)-2-hydroxy-3,4-dihydro-2H-benzo[e][1,2]oxaborinine-8-carboxylic acid]	< 100	C (C represents an MIC of <1 μg/mL)	C (C represents an MIC of <1 μg/mL)	< 100	100 to 1000	< 100	C (C represents an MIC of <1 μg/mL)	C (C represents an MIC of <1 μg/mL)	100 to 1000	C (C represents an MIC of <1 μg/mL)	C (C represents an MIC of <1 μg/mL)
NCc1nnn(CC(=O)N[C@H]2Cc3cccc(C(=O)O)c3OB2O)c1I [Example 105, (R)-3-(2-(4-(aminomethyl)-5-iodo-1H-1,2,3-triazol-1-yl)acetamido)-2-hydroxy-3,4-dihydro-2H-benzo[e][1,2]oxaborinine-8-carboxylic acid]	< 100	C (C represents an MIC of <1 μg/mL)	C (C represents an MIC of <1 μg/mL)	100 to 1000	< 100	< 100	C (C represents an MIC of <1 μg/mL)	C (C represents an MIC of <1 μg/mL)	< 100	C (C represents an MIC of <1 μg/mL)	C (C represents an MIC of <1 μg/mL)
Cc1c(CN)nnn1CC(=O)N[C@H]1Cc2cccc(C(=O)O)c2OB1O [Example 106, (R)-3-(2-(4-(aminomethyl)-5-methyl-1H-1,2,3-triazol-1-yl)acetamido)-2-hydroxy-3,4-dihydro-2H-benzo[e][1,2]oxaborinine-8-carboxylic acid]	< 100	C (C represents an MIC of <1 μg/mL)	C (C represents an MIC of <1 μg/mL)	100 to 1000	< 100	< 100	B (B represents an MIC between 1 and 16 μg/mL inclusive)	C (C represents an MIC of <1 μg/mL)	< 100	C (C represents an MIC of <1 μg/mL)	C (C represents an MIC of <1 μg/mL)
